Drawing on patent US9656988B2 (Pharmacyclics LLC, priority 2013, dated 2017), this text covers IC50 for 20 molecules.

pIC50: −log10 of the molar value. Read-outs that look alike come from different tables or passages of the source.

In this experiment the target is BTK (Homo sapiens (Human), UniProt Q06187). As to the kind of experiment: Btk in vitro inhibitory activity (one of Method A TR-FRET, Method B electrophoretic mobility shift, Method C radiometric filter binding). In kind it is biochemical. For orientation: In EMSA bound probe runs differently from free probe, usually more slowly.
Sequence of BTK (Q06187 whole entry): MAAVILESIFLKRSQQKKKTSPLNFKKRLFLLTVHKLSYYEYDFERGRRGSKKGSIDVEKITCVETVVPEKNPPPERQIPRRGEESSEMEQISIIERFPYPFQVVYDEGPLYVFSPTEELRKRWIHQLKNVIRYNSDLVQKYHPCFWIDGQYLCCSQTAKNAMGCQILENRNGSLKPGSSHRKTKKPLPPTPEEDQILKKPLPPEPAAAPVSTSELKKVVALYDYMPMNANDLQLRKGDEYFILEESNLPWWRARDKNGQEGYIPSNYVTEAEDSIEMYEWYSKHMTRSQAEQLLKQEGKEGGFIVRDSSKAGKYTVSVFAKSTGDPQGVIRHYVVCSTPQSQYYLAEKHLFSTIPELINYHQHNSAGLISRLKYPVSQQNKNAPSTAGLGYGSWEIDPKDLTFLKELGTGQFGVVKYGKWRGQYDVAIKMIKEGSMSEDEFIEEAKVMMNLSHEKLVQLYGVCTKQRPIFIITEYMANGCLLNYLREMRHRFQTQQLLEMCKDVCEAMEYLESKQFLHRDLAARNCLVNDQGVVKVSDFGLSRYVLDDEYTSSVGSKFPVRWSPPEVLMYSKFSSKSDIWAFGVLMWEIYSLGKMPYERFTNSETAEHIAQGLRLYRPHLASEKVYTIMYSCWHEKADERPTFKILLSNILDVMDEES
The mark [1] stands for this setting: determined using one of the methods of Example 355a, 355b and 355c, read-out: BTK IC50.

For `CN1CCN([C@@H]2CCCN(c3cnc(C(N)=O)c(Nc4ccc(C5(C)CCN(C6CCCC6)CC5)cc4)n3)C2)C1=O` [Example 267, (R)-3-(4-(1-cyclopentyl-4-methylpiperidin-4-yl)phenylamino)-5-(3-(3-methyl-2-oxoimidazolidin-1-yl)piperidin-1-yl)pyrazine-2-carboxamide], the pIC50 (commonly the IC50 on a negative log10 scale, so that one unit is a factor of ten) was > 8.00 under setting [1] and > 8.00 (read-out: Btk (IC50)).
On to `NC(=O)c1nnc(N2CCC[C@@H](NS(=O)(=O)c3ccccc3)C2)nc1Nc1ccc(C(=O)N2CCOCC2)cc1` [Example 41, (R)-5-(4-(morpholine-4-carbonyl)phenylamino)-3-(3-(phenylsulfonamido)piperidin-1-yl)-1,2,4-triazine-6-carboxamide], for which the negative-log IC50 (pIC50) under setting [1] is > 8.00.
On the same count and under the same terms, the value for `NC(=O)c1nnc(N2CCC[C@@H](NC(=O)c3ccc(C4CC4)cc3)C2)nc1Nc1ccc(C(=O)N2CCOCC2)cc1` [Example 11, (R)-3-(3-(4-cyclopropylbenzamido)piperidin-1-yl)-5-(4-(morpholine-4-carbonyl)phenylamino)-1,2,4-triazine-6-carboxamide] was > 8.00; that for `NC(=O)c1nnc(N2CCC[C@@H](NC(=O)c3ccn4ccnc4c3)C2)nc1Nc1ccc(C(=O)N2CCOCC2)cc1` [Example 20, (R)—N-(1-(6-carbamoyl-5-(4-(morpholine-4-carbonyl)phenylamino)-1,2,4-triazin-3-yl)piperidin-3-yl)imidazo[1,2-a]pyridine-7-carboxamide] was 7.00 to 8.00.
The same measure, in the same setting: the value for `NC(=O)c1nnc(N2CCC[C@@H](NC(=O)C3CCN(C4CCCC4)CC3)C2)nc1Nc1ccc(C(=O)N2CCOCC2)cc1` [Example 33, (R)-3-(3-(1-cyclopentylpiperidine-4-carboxamido)piperidin-1-yl)-5-(4-(morpholine-4-carbonyl)phenylamino)-1,2,4-triazine-6-carboxamide] was 7.00 to 8.00.
Same read-out and setting: the value for `CN(C)C(=O)N[C@@H]1CCCN(c2cnc(C(N)=O)c(Nc3ccc(C(=O)N4CCCC4)cc3)n2)C1` [Example 195, (R)-5-(3-(3,3-dimethylureido)piperidin-1-yl)-3-(4-(pyrrolidine-1-carbonyl)phenylamino)pyrazine-2-carboxamide] was > 8.00; that for `CN(C)C(=O)N[C@@H]1CCCN(c2cnc(C(N)=O)c(Nc3ccc(C4CCNCC4)cc3)n2)C1` [Example 154, (R)-5-(3-(3,3-dimethylureido)piperidin-1-yl)-3-(4-(piperidin-4-yl)phenylamino)pyrazine-2-carboxamide] was > 8.00.
For the molecule `CCN1CCN([C@@H]2CCCN(c3cnc(C(N)=O)c(Nc4ccc(C5CCN(C6CCCC6)CC5)cc4)n3)C2)C1=O` [Example 275, (R)-3-(4-(1-cyclopentylpiperidin-4-yl)phenylamino)-5-(3-(3-ethyl-2-oxoimidazolidin-1-yl)piperidin-1-yl)pyrazine-2-carboxamide], the pIC50 was > 8.00 under setting [1] and > 8.00 (read-out: Btk (IC50)).
Regarding `CN1CCN([C@@H]2CCCN(c3cnc(C(N)=O)c(Nc4ccc(N5CCS(=O)(=O)CC5)cc4)n3)C2)C1=O` [Example 260, (R)-5-(3-(3-methyl-2-oxoimidazolidin-1-yl)piperidin-1-yl)-3-(4-(1,1-dioxothiomorpholino)phenylamino)pyrazine-2-carboxamide], the pIC50 was > 8.00 under setting [1] and > 8.00 (read-out: Btk (IC50)).
`CN1CCN([C@@H]2CCCN(c3cnc(C(N)=O)c(Nc4ccc(C5CCN(C6CCCC6)CC5)cc4)n3)C2)C1=O` [Example 256, (R)-3-(4-(1-cyclopentylpiperidin-4-yl)phenylamino)-5-(3-(3-methyl-2-oxoimidazolidin-1-yl)piperidin-1-yl)pyrazine-2-carboxamide]: the pIC50 runs as follows: under setting [1], > 8.00; (read-out: Btk (IC50)) > 8.00.
Regarding `COc1ccc(C(=O)N[C@@H]2CCCN(c3cnc(C(N)=O)c(Nc4ccc(C5CCN(C)CC5)cc4)n3)C2)cc1` [Example 131, (R)-5-(3-(4-methoxybenzamido)piperidin-1-yl)-3-(4-(1-methylpiperidin-4-yl)phenylamino)pyrazine-2-carboxamide], the negative logarithm of the IC50 (pIC50) is > 8.00 under setting [1] and > 8.00 (read-out: Btk (IC50)).
On to `NC(=O)c1ncc(N2CCC[C@@H](N3CCN(C4CC4)C3=O)C2)nc1Nc1ccc(C2CCN(C3CCCC3)CC2)cc1` [Example 277, (R)-3-(4-(1-cyclopentylpiperidin-4-yl)phenylamino)-5-(3-(3-cyclopropyl-2-oxoimidazolidin-1-yl)piperidin-1-yl)pyrazine-2-carboxamide], for which the negative-log IC50 (pIC50) was > 8.00 under setting [1] and > 8.00 (read-out: Btk (IC50)).
In the case of `COc1ccc(C(=O)N[C@@H]2CCCN(c3cnc(C(N)=O)c(Nc4ccc(C5CCN(C(=O)CC#N)CC5)cc4)n3)C2)cc1` [Example 141, (R)-3-(4-(1-(2-cyanoacetyl)piperidin-4-yl)phenylamino)-5-(3-(4-methoxybenzamido)piperidin-1-yl)pyrazine-2-carboxamide], under setting [1], the pIC50 was > 8.00.
On the same count and under the same terms, the value for `Cc1cc(Nc2nc(N3CCC[C@@H](NC(=O)N(C)C)[C@H]3C)cnc2C(N)=O)sn1` [Example 242, 5-((2R,3R)-3-(3,3-dimethylureido)-2-methylpiperidin-1-yl)-3-(3-methylisothiazol-5-ylamino)pyrazine-2-carboxamide] was > 8.00.
As to `NC(=O)c1nnc(N2CCC[C@@H](NC(=O)c3ccc4c(c3)nnn4C3CC3)C2)nc1Nc1ccc(C(=O)N2CCOCC2)cc1` [Example 102, (R)—N-(1-(6-carbamoyl-5-(4-(morpholine-4-carbonyl)phenylamino)-1,2,4-triazin-3-yl)piperidin-3-yl)-1-cyclopropyl-1H-benzo[d][1,2,3]triazole-5-carboxamide], the pIC50 under setting [1] is > 8.00 and the pIC50 (read-out: Btk (IC50)) was > 8.00.
As for `CCOc1ccc(C(=O)N[C@@H]2CCCN(c3nnc(C(N)=O)c(Nc4ccc(C(=N)N5CCCC5)cc4)n3)C2)cc1` [Example 343, (R)-3-(3-(4-ethoxybenzamido)piperidin-1-yl)-5-(4-(imino(pyrrolidin-1-yl)methyl)phenylamino)-1,2,4-triazine-6-carboxamide], the pIC50 is > 8.00 under setting [1] and > 8.00 (read-out: Btk (IC50)).
In the case of `CCN1CCC(c2ccc(Nc3nc(N4CCC[C@@H](NC(=O)c5ccc(OC)cc5)C4)cnc3C(N)=O)cc2)CC1` [Example 132, (R)-3-(4-(1-ethylpiperidin-4-yl)phenylamino)-5-(3-(4-methoxybenzamido)piperidin-1-yl)pyrazine-2-carboxamide], the pIC50 reads like this: under setting [1], > 8.00; (read-out: Btk (IC50)) > 8.00.
As to `CC(C)[N+]1([O-])CCC(c2ccc(Nc3nc(N4CCC[C@@H](NC(=O)N(C)C)C4)cnc3C(N)=O)cc2)CC1` (stereo partly drawn) [Example 209, (R)-4-(4-(3-carbamoyl-6-(3-(3,3-dimethylureido)piperidin-1-yl)pyrazin-2-ylamino)phenyl)-1-isopropylpiperidine 1-oxide], the negative-log IC50 (pIC50) under setting [1] is 7.00 to 8.00.
In the case of `NC(=O)c1ncc(N2CCC[C@@H](NC(=O)c3cc4ccccc4s3)C2)nc1Nc1ccc(C2CCN(C3CC3)CC2)cc1` [Example 315, (R)-5-(3-(benzo[b]thiophene-2-carboxamido)piperidin-1-yl)-3-(4-(1-cyclopropylpiperidin-4-yl)phenylamino)pyrazine-2-carboxamide], the negative logarithm of the IC50 (pIC50) is 7.00 to 8.00. The negative-log IC50 (pIC50) under setting [1] is 7.00 to 8.00.
On to `C=CC(=O)N1CCC[C@@H](Nc2nnc(C(N)=O)c(Nc3ccc(C(=O)N4CCOCC4)cc3)n2)C1` [Example 65, (R)-3-(1-acryloylpiperidin-3-ylamino)-5-(4-(morpholine-4-carbonyl)phenylamino)-1,2,4-triazine-6-carboxamide], for which the pIC50 under setting [1] is > 8.00.
